In paper PMC11604427 (Frontiers in Pharmacology, 2024):

How the values were obtained:
[1] = test system: HCC cell lines; assay: MTT assay, all HCC cell lines; format: cell-based; settings: Homo sapiens, range over HepG2, Hep3B, Huh7, SNU449, HepG2/MDR, 48 h, read-out: IC50 values against all HCC cell lines
Experimental: The MTT assay was conducted to evaluate the inhibitory impact of PKHD-5 on HCC cells, HepG2/ADR cells, and normal liver cells ([Ding et al., 2020]). Cells at a density of 4×10^3 cells/well were inoculated into 96-well plates for overnight culture at 37°C. The cells were treated with varying concentrations of the test compounds and incubated for 48 h. Then, 100 μL of a 0.5 mg/mL MTT solution was pipetted into each well, and the incubation was prolonged for 4 h, resulting in the formation of a purple precipitate. Afterward, 200 μL of DMSO was added to each well, and the plate was vortexed for 10 min. The absorbance at 570 nm was determined with a Synergy 4 microplate reader (BioTek, United States). Each experiment was performed three times under the same conditions.

[2] = target: T1, FGFR3 (Homo sapiens, UniProt P22607); assay: SelectScreen kinase selectivity assay; format: biochemical
T1 construct: purchased Thermo Fisher Scientific (SelectScreen service)
T1 sequence (P22607 23-806): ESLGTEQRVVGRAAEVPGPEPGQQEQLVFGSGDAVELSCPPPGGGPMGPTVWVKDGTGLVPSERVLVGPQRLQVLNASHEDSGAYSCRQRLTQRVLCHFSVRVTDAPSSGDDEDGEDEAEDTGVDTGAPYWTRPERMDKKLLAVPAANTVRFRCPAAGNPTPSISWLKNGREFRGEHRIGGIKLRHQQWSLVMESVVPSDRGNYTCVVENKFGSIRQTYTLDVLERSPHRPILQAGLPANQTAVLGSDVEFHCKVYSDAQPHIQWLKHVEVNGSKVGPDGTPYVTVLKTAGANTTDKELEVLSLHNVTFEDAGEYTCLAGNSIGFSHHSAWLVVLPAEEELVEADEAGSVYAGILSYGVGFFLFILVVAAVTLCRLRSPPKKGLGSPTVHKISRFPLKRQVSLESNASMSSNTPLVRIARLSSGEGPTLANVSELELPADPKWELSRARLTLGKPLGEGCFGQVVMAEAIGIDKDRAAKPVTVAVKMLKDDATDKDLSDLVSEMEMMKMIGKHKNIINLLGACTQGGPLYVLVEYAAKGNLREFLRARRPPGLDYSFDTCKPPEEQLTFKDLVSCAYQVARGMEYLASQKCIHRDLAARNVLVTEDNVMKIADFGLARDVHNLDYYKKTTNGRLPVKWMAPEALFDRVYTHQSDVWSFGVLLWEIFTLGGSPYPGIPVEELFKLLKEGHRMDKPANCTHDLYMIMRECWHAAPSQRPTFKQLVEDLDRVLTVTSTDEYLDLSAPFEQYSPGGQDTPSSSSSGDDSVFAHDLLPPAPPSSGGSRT
Experimental: (§1) The kinase selectivity analysis of PKHD-5 was performed using the SelectScreen kinase analysis service provided by Thermo Fisher Scientific. The experiment initially involved the preparation of a series of inhibitor solutions at varying concentrations, which were then reacted with various kinase targets under standardized conditions to calculate the percentage inhibition for each test solution. Ultimately, the IC50 values were calculated based on the concentration-inhibition curves by fitting a four-parameter logistic curve, thereby assessing the potency and selectivity of the inhibitors. The analysis results are detailed in Supplementary Table S1.

[3] = target: T2, EPHB1 (Homo sapiens, UniProt P54762); assay: SelectScreen kinase selectivity assay; format: biochemical
T2 construct: purchased Thermo Fisher Scientific (SelectScreen service)
T2 sequence (P54762 18-984): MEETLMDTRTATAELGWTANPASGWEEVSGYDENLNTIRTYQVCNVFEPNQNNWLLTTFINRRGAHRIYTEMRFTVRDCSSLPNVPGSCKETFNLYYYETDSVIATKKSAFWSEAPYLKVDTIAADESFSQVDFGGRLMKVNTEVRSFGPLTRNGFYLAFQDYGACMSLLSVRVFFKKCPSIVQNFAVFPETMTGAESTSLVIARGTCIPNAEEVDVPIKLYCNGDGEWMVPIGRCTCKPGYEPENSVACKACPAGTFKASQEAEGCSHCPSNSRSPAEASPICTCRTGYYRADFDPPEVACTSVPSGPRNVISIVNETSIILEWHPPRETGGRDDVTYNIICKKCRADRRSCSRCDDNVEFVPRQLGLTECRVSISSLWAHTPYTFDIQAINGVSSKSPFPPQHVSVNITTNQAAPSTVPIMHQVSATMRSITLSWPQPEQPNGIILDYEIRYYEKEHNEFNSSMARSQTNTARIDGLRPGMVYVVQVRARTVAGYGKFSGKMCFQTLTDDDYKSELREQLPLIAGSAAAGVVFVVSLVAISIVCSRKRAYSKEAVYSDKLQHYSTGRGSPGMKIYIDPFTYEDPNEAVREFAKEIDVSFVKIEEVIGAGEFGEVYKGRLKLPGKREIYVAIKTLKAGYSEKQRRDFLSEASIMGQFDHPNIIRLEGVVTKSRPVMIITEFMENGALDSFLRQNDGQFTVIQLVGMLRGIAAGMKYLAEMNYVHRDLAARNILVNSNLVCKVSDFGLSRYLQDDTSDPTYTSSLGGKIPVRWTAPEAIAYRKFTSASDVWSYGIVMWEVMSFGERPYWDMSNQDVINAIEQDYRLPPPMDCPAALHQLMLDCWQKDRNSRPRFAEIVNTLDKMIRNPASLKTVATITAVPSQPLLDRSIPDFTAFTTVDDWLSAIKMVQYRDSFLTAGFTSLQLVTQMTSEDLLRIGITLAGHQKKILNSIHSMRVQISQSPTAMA
Experimental: as §1

[4] = target: T3, BTK (Homo sapiens, UniProt Q06187); assay: SelectScreen kinase selectivity assay; format: biochemical
T3 construct: purchased Thermo Fisher Scientific (SelectScreen service)
T3 sequence (Q06187 whole entry): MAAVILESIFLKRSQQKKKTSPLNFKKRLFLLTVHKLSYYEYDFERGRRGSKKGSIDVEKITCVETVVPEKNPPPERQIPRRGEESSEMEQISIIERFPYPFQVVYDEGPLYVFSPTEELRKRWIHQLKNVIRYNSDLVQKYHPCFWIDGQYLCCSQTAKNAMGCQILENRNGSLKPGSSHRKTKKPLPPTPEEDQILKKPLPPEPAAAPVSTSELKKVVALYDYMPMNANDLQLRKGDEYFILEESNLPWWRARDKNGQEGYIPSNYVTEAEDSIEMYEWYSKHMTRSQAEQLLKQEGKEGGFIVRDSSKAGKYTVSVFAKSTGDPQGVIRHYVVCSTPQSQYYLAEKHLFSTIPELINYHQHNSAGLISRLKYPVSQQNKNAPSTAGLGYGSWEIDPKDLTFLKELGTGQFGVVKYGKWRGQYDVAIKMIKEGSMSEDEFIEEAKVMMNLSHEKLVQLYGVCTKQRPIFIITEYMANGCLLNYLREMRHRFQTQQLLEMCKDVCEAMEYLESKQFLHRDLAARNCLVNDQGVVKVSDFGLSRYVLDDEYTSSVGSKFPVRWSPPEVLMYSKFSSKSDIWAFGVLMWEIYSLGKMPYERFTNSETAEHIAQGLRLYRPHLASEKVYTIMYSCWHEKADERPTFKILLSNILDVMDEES
Experimental: as §1

[5] = target: T4, NTRK3 (Homo sapiens, UniProt Q16288); assay: SelectScreen kinase selectivity assay; format: biochemical
T4 construct: purchased Thermo Fisher Scientific (SelectScreen service)
Experimental: as §1

[6] = target: T5, PLK2 (Homo sapiens, UniProt Q9NYY3); assay: SelectScreen kinase selectivity assay; format: biochemical
T5 construct: purchased Thermo Fisher Scientific (SelectScreen service)
Experimental: as §1

[7] = target: T6, ZAP70 (Homo sapiens, UniProt P43403); assay: SelectScreen kinase selectivity assay; format: biochemical
T6 construct: purchased Thermo Fisher Scientific (SelectScreen service)
T6 sequence (P43403 whole entry): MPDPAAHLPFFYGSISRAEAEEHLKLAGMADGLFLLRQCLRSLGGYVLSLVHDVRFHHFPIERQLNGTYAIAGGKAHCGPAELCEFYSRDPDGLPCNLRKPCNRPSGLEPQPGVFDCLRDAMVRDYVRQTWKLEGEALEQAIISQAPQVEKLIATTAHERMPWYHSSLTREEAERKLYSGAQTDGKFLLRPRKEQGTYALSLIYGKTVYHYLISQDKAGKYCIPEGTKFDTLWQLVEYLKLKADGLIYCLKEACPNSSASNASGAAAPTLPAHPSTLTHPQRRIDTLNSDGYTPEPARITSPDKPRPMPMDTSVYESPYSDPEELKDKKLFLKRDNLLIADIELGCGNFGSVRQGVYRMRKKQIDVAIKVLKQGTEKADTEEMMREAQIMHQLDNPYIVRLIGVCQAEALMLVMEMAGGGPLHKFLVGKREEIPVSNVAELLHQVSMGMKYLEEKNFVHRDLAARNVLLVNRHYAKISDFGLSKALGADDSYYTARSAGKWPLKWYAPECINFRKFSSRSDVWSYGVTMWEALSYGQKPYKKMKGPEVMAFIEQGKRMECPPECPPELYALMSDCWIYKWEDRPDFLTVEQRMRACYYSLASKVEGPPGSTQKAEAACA
Experimental: as §1

[8] = target: T7, LTK (Homo sapiens, UniProt P29376); assay: SelectScreen kinase selectivity assay; format: biochemical
T7 construct: purchased Thermo Fisher Scientific (SelectScreen service)
Experimental: as §1

[9] = target: T8, DDR1 (Homo sapiens, UniProt Q08345); assay: SelectScreen kinase selectivity assay; format: biochemical
T8 construct: purchased Thermo Fisher Scientific (SelectScreen service)
Experimental: as §1

[10] = target: T9, CDK1 (Homo sapiens, UniProt P06493); assay: SelectScreen kinase selectivity assay; format: biochemical
T9 construct: purchased Thermo Fisher Scientific (SelectScreen service)
Experimental: as §1

[11] = target: T10, ITK (Homo sapiens, UniProt Q08881); assay: SelectScreen kinase selectivity assay; format: biochemical
T10 construct: purchased Thermo Fisher Scientific (SelectScreen service)
Experimental: as §1

[12] = target: T11, MERTK (Homo sapiens, UniProt Q12866); assay: SelectScreen kinase selectivity assay; format: biochemical
T11 construct: purchased Thermo Fisher Scientific (SelectScreen service)
T11 sequence (Q12866 21-999): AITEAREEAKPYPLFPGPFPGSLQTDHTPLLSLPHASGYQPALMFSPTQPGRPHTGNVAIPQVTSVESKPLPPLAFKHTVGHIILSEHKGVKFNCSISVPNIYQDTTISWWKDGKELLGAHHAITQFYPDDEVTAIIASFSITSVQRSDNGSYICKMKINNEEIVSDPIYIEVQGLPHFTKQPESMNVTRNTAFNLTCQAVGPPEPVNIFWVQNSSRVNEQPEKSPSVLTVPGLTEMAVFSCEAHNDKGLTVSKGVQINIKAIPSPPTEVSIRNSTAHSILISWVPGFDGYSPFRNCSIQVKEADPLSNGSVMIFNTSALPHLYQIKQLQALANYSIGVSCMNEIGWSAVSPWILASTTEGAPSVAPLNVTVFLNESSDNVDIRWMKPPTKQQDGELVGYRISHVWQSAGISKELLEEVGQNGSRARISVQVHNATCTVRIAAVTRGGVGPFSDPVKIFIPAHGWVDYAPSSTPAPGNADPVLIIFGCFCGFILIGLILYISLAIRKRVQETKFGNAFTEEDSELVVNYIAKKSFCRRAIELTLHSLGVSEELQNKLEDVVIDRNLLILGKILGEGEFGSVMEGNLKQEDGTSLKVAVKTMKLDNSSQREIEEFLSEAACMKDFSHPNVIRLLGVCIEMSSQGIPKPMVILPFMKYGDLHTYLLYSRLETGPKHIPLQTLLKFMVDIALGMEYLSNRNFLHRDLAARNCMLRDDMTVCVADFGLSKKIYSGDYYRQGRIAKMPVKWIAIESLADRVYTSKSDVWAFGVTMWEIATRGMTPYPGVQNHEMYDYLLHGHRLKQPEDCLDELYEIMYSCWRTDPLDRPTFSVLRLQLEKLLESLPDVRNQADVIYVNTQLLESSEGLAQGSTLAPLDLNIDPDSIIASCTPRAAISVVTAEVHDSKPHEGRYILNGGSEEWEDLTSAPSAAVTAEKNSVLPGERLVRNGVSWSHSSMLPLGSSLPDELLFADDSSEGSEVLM
Experimental: as §1

[13] = target: T12, ABL1 (Homo sapiens, UniProt P00519); assay: SelectScreen kinase selectivity assay; format: biochemical
T12 construct: purchased Thermo Fisher Scientific (SelectScreen service)
Experimental: as §1

[14] = target: T13, ERBB2 (Homo sapiens, UniProt P04626); assay: SelectScreen kinase selectivity assay; format: biochemical
T13 construct: purchased Thermo Fisher Scientific (SelectScreen service)
Experimental: as §1

[15] = target: T14, INSRR (Homo sapiens, UniProt P14616); assay: SelectScreen kinase selectivity assay; format: biochemical
T14 construct: purchased Thermo Fisher Scientific (SelectScreen service)
Experimental: as §1

[16] = target: T15, ERBB4 (Homo sapiens, UniProt Q15303); assay: SelectScreen kinase selectivity assay; format: biochemical
T15 construct: purchased Thermo Fisher Scientific (SelectScreen service)
Experimental: as §1

[17] = target: T16, PDGFRB (Homo sapiens, UniProt P09619); assay: SelectScreen kinase selectivity assay; format: biochemical
T16 construct: purchased Thermo Fisher Scientific (SelectScreen service)
Experimental: as §1

[18] = target: T17, FGR (Homo sapiens, UniProt P09769); assay: SelectScreen kinase selectivity assay; format: biochemical
T17 construct: purchased Thermo Fisher Scientific (SelectScreen service)
T17 sequence (P09769 whole entry): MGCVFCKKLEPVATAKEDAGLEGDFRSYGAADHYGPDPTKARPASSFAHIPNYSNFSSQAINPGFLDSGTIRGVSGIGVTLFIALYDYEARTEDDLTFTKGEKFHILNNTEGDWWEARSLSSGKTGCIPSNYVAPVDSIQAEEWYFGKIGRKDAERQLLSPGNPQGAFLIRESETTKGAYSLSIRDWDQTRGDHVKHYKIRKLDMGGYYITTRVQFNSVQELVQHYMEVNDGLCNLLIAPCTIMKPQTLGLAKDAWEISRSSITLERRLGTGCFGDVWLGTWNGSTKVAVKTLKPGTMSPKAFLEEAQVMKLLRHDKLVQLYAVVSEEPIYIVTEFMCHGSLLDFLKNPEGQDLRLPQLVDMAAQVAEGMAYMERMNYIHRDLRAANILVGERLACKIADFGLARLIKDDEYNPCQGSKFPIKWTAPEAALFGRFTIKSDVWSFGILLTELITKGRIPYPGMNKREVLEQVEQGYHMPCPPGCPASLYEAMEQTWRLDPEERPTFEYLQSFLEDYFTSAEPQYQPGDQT
Experimental: as §1

[19] = target: T18, Human recombinant HDAC2 enzyme (Homo sapiens, UniProt Q92769); assay: HDAC2 fluorescence enzyme inhibition assay (Boc-Lys(acetyl)-AMC); format: biochemical
T18 construct: purchased Abcam
T18 sequence (Q92769 whole entry): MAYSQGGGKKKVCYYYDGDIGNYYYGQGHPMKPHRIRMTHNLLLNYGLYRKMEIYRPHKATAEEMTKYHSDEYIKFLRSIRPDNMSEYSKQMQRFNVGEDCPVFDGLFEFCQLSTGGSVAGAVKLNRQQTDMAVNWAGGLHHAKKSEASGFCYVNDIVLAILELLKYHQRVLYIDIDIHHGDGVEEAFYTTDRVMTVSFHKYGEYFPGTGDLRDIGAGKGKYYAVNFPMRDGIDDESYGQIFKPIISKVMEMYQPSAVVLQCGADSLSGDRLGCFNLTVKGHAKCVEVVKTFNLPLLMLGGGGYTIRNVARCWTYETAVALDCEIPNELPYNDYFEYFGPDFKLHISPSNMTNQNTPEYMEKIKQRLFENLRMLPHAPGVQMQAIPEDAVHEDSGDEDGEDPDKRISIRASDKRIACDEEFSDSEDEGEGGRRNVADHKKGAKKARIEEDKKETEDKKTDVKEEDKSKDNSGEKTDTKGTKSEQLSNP
Experimental: Firstly, a 96-well plate was loaded with a blend comprising 10 μL of HDAC2 enzyme solution and 50 μL of the test compounds at assorted concentrations, followed by incubation at a temperature of 37°C for a duration of 5 min. Subsequently, 10 μL of the fluorescent substrate Boc-Lys (acetyl)-AMC was added and continued for 30 min. Finally, 100 μL of developer containing trypsin and TSA was injected into each well and incubated for 20 min.

[20] = test system: HepG2 cells; assay: RT-PCR analysis; format: cell-based, human
Experimental: Total RNA was extracted from cells using Trizol reagent (Invitrogen, Carlsbad, CA) and reverse transcribed into cDNA with the PrimeScript RT reagent kit (Takara Bio, Otsu, Japan). RT-PCR was performed on the Mx3000P system (Agilent Technologies, Santa Clara, CA) with TB Green Premix Ex Taq II (Takara Bio). Relative gene expression was determined by the 2^−ΔΔCt method.

[21] = test system: HepG2 xenograft; assay: HepG2 bearing xenograft model; format: in vivo, BALB/c nude mice; settings: versus vehicle
Excerpt: A previously reported human tumor xenograft model was established to evaluate the anti-tumor effects of PKHD-5 in vivo ([Zhou et al., 2022]). All procedures involving animals were granted approval by the Ethics Committee at China Pharmaceutical University. A total of 20 male BALB/c nude mice (6 weeks old) were purchased from Changzhou Cave Experimental Animal Co., Ltd. (Changzhou, China). Mice were maintained under specific pathogen-free (SPF) conditions, with environmental parameters meticulously controlled at a temperature of 25°C ± 2°C, relative humidity maintained at 50% ± 5%, and an established diurnal cycle of 12 h for both light and darkness. During the experiment, all mice were free to access water and food. After 10 days of adaptive feeding, HepG2 cells (1×10^7 cells) were subcutaneously injected into mice. Once the tumors reached a size of 90–120 mm^3, the nude mice were randomly assigned to either the vehicle control group or the group treated with PKHD-5 (n = 5). Furthermore, the treatment was divided into three dose-based groups of 1, 5, and 10 mg/kg. The tumor volume was measured by a digital caliper for a total of 18 days and calculated by the following formula: (c×c×d)/2, where c represents the minimum diameter of the tumor and d indicates the maximum diameter. In addition, the body weight of the mice was measured and recorded every 3 days.

[22] = target: 63 distinct kinases; assay: SelectScreen kinase selectivity assay, whole panel; format: biochemical; settings: read-out: IC50 values for each of the 63 kinases
Experimental: as §1

Compound: Cc1ccc(O)c(C)c1-n1c(N)c(C(N)=O)c2cc(CCCCCC(=O)NO)c(C)nc21 [PKHD-5]
- IC50 [1]: 0.19 to 0.92 µM
- IC50 [2]: > 50 µM
- IC50 [3]: > 50 µM
- IC50 [4]: > 50 µM
- IC50 [5]: > 50 µM
- IC50 [6]: > 50 µM
- IC50 [7]: > 50 µM
- IC50 [8]: > 50 µM
- IC50 [9]: > 50 µM
- IC50 [10]: > 50 µM
- IC50 [11]: > 50 µM
- IC50 [12]: > 50 µM
- IC50 [13]: > 50 µM
- IC50 [14]: > 50 µM
- IC50 [15]: > 50 µM
- IC50 [16]: > 50 µM
- IC50 [17]: > 50 µM
- IC50 [18]: > 50 µM
- IC50 ([19]; fluorescence signal-based method): 0.00228 ± 0.00013 µM
- fold inhibition of HDAC2 compared with SAHA ([19]; ratio of IC50 values versus SAHA): 4.42 fold
- expression of histone H3 acetylation [20]: upregulated
- expression of p21 [20]: upregulated
- body weight changes in mice ([21]; HepG2 xenograft mice): did not exhibit any significant disparities
- rate at which tumors grew (tumor volume) ([21]; HepG2 xenograft, intraperitoneal 1, 5, 10 mg/kg, 18 days): considerably lower
- IC50 [22]: > 50 µM
